Measured values: US12180207B2 (ARRAY BIOPHARMA INC., priority 2018, dated 2024)

Columns and labels:
[1] = target: recombinant human FGFR2 cytoplasmic domain (amino acids 403-822) (Homo sapiens (Human), UniProt P21802); assay: FGFR2 enzyme activity assay (LanthaScreen TR-FRET); assay type: biochemical; details: 15 μM ATP, 20 min incubation at 22° C., average of multiple determinations if made, read-out: FGFR2 Enz FRET IC50
Outline: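 Substrate phosphorylation was read by TR-FRET using Eu-PY20 antibody (60 min, 22 °C) after a 20 min, 22 °C reaction. The reaction used 15 μM ATP, 100 nM fluorescent poly-GT peptide and His-tagged FGFR2 403-822 ([…]) at pH 7.5 with 2% DMSO.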

[2] = target: dephosphorylated FGFR2 (Homo sapiens (Human), UniProt P21802); assay: FGFR enzyme binding assay (HTRF tracer displacement), FGFR2; details: 5 nM dephosphorylated FGFR2, average of multiple determinations if made
dephosphorylated FGFR2, sequence (P21802 22-821): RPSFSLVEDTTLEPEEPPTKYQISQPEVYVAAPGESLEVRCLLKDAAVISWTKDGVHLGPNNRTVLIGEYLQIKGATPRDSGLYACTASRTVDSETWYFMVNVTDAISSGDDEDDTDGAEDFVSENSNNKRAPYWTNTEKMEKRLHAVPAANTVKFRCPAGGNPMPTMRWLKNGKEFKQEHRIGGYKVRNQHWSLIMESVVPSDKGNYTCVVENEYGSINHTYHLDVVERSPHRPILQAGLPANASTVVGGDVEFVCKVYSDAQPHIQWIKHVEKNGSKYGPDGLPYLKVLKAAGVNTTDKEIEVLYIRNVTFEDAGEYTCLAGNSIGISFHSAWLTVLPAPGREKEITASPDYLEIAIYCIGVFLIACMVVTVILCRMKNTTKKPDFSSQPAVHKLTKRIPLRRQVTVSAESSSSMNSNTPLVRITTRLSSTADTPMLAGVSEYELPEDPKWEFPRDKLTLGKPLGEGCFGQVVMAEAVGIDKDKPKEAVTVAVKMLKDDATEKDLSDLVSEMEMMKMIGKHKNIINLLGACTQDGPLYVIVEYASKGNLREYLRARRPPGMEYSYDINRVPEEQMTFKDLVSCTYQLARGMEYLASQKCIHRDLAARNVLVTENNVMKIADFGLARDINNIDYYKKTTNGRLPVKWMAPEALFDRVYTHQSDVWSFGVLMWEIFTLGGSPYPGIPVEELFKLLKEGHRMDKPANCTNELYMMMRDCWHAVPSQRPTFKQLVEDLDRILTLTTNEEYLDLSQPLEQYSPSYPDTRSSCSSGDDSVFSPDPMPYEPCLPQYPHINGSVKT
Experimental: The potency of compounds inhibiting human isoforms of FGFR kinase was determined using Life Technologies' Homogeneous Time Resolved Fluorescence (HTRF)-based binding assay technology. […] After a 60 minute incubation at 22° C., the extent of tracer displacement was determined using a PerkinElmer EnVision multimode plate reader via HTRF dual wavelength detection, and the percent of control (POC) was calculated using a ratiometric emission factor. One hundred POC was determined using no test compound, and 0 POC was determined in the presence of 1 μM of an appropriate control inhibitor.

[3] = target: recombinant human FGFR3 (amino acids R397-T806) (Homo sapiens (Human), UniProt P22607); assay: FGFR3 enzyme activity assay (LanthaScreen TR-FRET); assay type: biochemical; details: 25 μM ATP, 10 min incubation at 22° C., average of multiple determinations if made, read-out: FGFR3 Enz FRET IC50
recombinant human FGFR3 (amino acids R397-T806), sequence (P22607 397-806): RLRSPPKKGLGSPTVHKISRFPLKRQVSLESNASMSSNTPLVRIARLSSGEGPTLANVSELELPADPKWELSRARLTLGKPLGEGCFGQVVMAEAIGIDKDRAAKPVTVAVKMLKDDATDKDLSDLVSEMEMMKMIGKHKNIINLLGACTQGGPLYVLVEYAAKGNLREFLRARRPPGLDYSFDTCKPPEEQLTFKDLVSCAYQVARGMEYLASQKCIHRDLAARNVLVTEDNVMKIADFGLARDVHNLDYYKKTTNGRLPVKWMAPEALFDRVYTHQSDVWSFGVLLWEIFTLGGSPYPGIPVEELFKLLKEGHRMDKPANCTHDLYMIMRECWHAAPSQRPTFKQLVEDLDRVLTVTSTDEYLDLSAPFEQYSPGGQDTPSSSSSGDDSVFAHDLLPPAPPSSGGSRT
Outline: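 GST-HIS6-tagged human FGFR3 (R397-T806) was reacted with 100 nM Alexa Fluor 647-Poly-GT substrate and 25 μM ATP plus compound in HEPES/MgCl2/Triton buffer, pH 7.5, 2% DMSO, for 10 min at 22 °C.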

[4] = target: dephosphorylated FGFR1 (SEQ ID NO: 1, amino acids 458 to 765) (Homo sapiens (Human), UniProt P11362); assay: FGFR enzyme binding assay (HTRF tracer displacement), FGFR1; details: 5 nM dephosphorylated FGFR1, average of multiple determinations if made
dephosphorylated FGFR1 (SEQ ID NO: 1, amino acids 458 to 765), sequence (P11362 458-765): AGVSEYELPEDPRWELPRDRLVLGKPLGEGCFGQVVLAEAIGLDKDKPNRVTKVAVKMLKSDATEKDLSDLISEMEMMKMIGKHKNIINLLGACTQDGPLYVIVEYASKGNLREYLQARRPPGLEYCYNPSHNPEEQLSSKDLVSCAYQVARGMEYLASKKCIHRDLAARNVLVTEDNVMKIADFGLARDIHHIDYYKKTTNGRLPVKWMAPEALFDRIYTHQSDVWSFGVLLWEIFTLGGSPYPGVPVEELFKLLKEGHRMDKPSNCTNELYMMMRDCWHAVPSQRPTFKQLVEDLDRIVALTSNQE
Outline: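 Kinase and tracer were incubated with compound for 60 minutes at 22° C. Tracer displacement was then measured by HTRF, and results were expressed as POC with 1 μM control inhibitor defining full displacement.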

[5] = target: FGFR1 (SEQ ID NO: 1, amino acids 458-765) (Homo sapiens (Human), UniProt P11362); assay: LC/MS FGFR1 kobs assay (covalent protein modification); assay type: binding; details: 500 nM FGFR1, 3 μM compound
FGFR1 (SEQ ID NO: 1, amino acids 458-765), sequence (P11362 458-765): as above
Outline: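 Covalent labeling of FGFR1 kinase domain (aa 458-765) tracked over time by intact-protein LC/MS after formic acid quench. kobs derived by fitting DMSO-normalized percent unmodified FGFR1 to an exponential decay model.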

recombinant human FGFR2 cytoplasmic domain (amino acids 403-822), sequence (P21802 402-821): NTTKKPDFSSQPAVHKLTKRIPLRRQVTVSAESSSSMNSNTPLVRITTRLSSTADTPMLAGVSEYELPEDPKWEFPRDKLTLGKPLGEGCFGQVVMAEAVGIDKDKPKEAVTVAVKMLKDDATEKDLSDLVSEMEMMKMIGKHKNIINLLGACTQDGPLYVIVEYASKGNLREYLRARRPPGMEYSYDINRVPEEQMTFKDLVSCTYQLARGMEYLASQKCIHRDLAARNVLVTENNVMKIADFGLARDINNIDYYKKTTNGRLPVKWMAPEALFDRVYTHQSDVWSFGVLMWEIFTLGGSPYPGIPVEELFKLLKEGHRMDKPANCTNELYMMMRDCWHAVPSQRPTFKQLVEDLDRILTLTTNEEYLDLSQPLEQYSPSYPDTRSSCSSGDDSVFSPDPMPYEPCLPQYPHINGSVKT

In the case of `C=CC(=O)N1CC(CN2CCC(n3ncc(-c4cc(OC)c5c(Cl)cnn5c4)c3C)CC2)(OC)C1` [Example 119, 1-(3-((4-(4-(3-chloro-4-methoxypyrazolo[1,5-a]pyridin-6-yl)-5-methyl-1H-pyrazol-1-yl)piperidin-1-yl)methyl)-3-methoxyazetidin-1-yl)prop-2-en-1-one], the IC50 [1] is reported as 219 nM, the IC50 [2] is reported as 60 nM and the IC50 [3] is reported as 39 nM. The IC50 [4] was 565 nM and the “FGFR1 Enz kobs” value [5] was 0.00359 min⁻¹.
In the case of `C=CC(=O)N1CC(CN2CCC(n3ncc(-c4cc(OC)c5c(Cl)cnn5c4)c3C)CC2)C1(C)C` (stereo not shown) [Example 120, 1-(3-((4-(4-(3-chloro-4-methoxypyrazolo[1,5-a]pyridin-6-yl)-5-methyl-1H-pyrazol-1-yl)piperidin-1-yl)methyl)-2,2-dimethylazetidin-1-yl)prop-2-en-1-one], the IC50 [1] is reported as 39 nM, the IC50 [2] is reported as 84 nM and the IC50 [3] is reported as 72 nM. The IC50 [4] was 400 nM and the “FGFR1 Enz kobs” value [5] was 0.00068 min⁻¹.
In the case of `C=CC(=O)N1CCN(C(=O)N2CCC(n3cc(-c4cc(OC)c5c(C#N)cnn5c4)cn3)CC2)C[C@@H]1CC#N` [Example 135, (S)-6-(1-(1-(4-acryloyl-3-(cyanomethyl)piperazine-1-carbonyl)piperidin-4-yl)-1H-pyrazol-4-yl)-4-methoxypyrazolo[1,5-a]pyridine-3-carbonitrile], the IC50 [1] is reported as 4 nM, the IC50 [2] is reported as 13 nM and the IC50 [3] is reported as 6 nM. For the same compound, the IC50 [4] was 35 nM and the “FGFR1 Enz kobs” value [5] was 0.0029 min⁻¹.
With `COc1cc(-c2cnn(C3CCN(C(=O)C4CN(C(=O)/C=C/CO)C4)CC3)c2)cn2ncc(C#N)c12` [Example 141, (E)-6-(1-(1-(1-(4-hydroxybut-2-enoyl)azetidine-3-carbonyl)piperidin-4-yl)-1H-pyrazol-4-yl)-4-methoxypyrazolo [1,5-a]pyridine-3-carbonitrile] the IC50 [1] was 5 nM, the IC50 [2] was 18 nM and the IC50 [3] was 6 nM. The IC50 [4] was 40 nM and the “FGFR1 Enz kobs” value [5] was 0.00014 min⁻¹.
`C=CC(=O)N1CC(CN2CCC(n3ncc(-c4cc(OC)c5c(C#N)cnn5c4)c3C)CC2)C1(C)C` (stereo not shown) [Example 151, 6-(1-(1-((1-acryloyl-2,2-dimethylazetidin-3-yl)methyl)piperidin-4-yl)-5-methyl-1H-pyrazol-4-yl)-4-methoxypyrazolo [1,5-a]pyridine-3-carbonitrile] was tested, and the IC50 [1] was 9 nM, the IC50 [2] was 38 nM and the IC50 [3] was 17 nM. For the same compound, the IC50 [4] was 171 nM and the “FGFR1 Enz kobs” value [5] was 0.0008 min⁻¹.
Work on `COc1cc(-c2cnn(C3CCN(C(=O)C4CN(C(=O)/C=C/CN(C)C)C4)CC3)c2C)cn2ncc(C#N)c12` [Example 152, (E)-6-(1-(1-(1-(4-(dimethylamino)but-2-enoyl)azetidine-3-carbonyl)piperidin-4-yl)-5-methyl-1H-pyrazol-4-yl)-4-methoxypyrazolo [1,5-a]pyridine-3-carbonitrile] yielded an IC50 [1] of 35 nM, an IC50 [2] of 49 nM and an IC50 [3] of 16 nM. The IC50 [4] was 320 nM and the “FGFR1 Enz kobs” value [5] was 0.00338 min⁻¹.
Work on `COc1cc(-c2cnn(C3CCN(C(=O)C4(F)CN(C(=O)/C=C/CN(C)C)C4)CC3)c2C)cn2ncc(C#N)c12` [Example 153, (E)-6-(1-(1-(1-(4-(dimethylamino)but-2-enoyl)-3-fluoroazetidine-3-carbonyl)piperidin-4-yl)-5-methyl-1H-pyrazol-4-yl)-4-methoxypyrazolo [1,5-a]pyridine-3-carbonitrile] yielded an IC50 [1] of 4 nM, an IC50 [2] of 11 nM and an IC50 [3] of 5 nM. For the same compound, the IC50 [4] was 210 nM and the “FGFR1 Enz kobs” value [5] was 0.00975 min⁻¹.
Compound `COC/C=C/C(=O)N1CC(F)(C(=O)N2CCC(n3ncc(-c4cc(OC)c5c(C#N)cnn5c4)c3C)CC2)C1` [Example 154, (E)-6-(1-(1-(3-fluoro-1-(4-methoxybut-2-enoyl)azetidine-3-carbonyl)piperidin-4-yl)-5-methyl-1H-pyrazol-4-yl)-4-methoxypyrazolo [1,5-a]pyridine-3-carbonitrile] has an IC50 [1] of 16 nM, an IC50 [2] of 69 nM and an IC50 [3] of 19 nM. For the same compound, the IC50 [4] was 430 nM and the “FGFR1 Enz kobs” value [5] was 0.00081 min⁻¹.
`COc1cc(-c2cnn(C3CCN(C(=O)C4(F)CN(C(=O)/C=C/C(F)(F)F)C4)CC3)c2C)cn2ncc(C#N)c12` [Example 155, (E)-6-(1-(1-(3-fluoro-1-(4,4,4-trifluorobut-2-enoyl)azetidine-3-carbonyl)piperidin-4-yl)-5-methyl-1H-pyrazol-4-yl)-4-methoxypyrazolo [1,5-a]pyridine-3-carbonitrile] was tested, and the IC50 [1] was 114 nM, the IC50 [2] was 51 nM and the IC50 [3] was 11 nM. For the same compound, the IC50 [4] was 426 nM and the “FGFR1 Enz kobs” value [5] was 0.03227 min⁻¹.
Compound `CC#CC(=O)N1CC(F)(C(=O)N2CCC(n3ncc(-c4cc(OC)c5c(C#N)cnn5c4)c3C)CC2)C1` [Example 156, 6-(1-(1-(1-(but-2-ynoyl)-3-fluoroazetidine-3-carbonyl)piperidin-4-yl)-5-methyl-1H-pyrazol-4-yl)-4-methoxypyrazolo [1,5-a]pyridine-3-carbonitrile] has an IC50 [1] of 84 nM, an IC50 [2] of 26 nM and an IC50 [3] of 24 nM. For the same compound, the IC50 [4] was 598 nM and the “FGFR1 Enz kobs” value [5] was 0.0008 min⁻¹.
`COc1cc(-c2cnn(C3CCN(C(=O)C4(C)CN(C(=O)/C=C/CN(C)C)C4)CC3)c2C)cn2ncc(C#N)c12` [Example 157, (E)-6-(1-(1-(1-(4-(dimethylamino)but-2-enoyl)-3-methylazetidine-3-carbonyl)piperidin-4-yl)-5-methyl-1H-pyrazol-4-yl)-4-methoxypyrazolo [1,5-a]pyridine-3-carbonitrile] showed an IC50 [1] of 30 nM, an IC50 [2] of 6 nM and an IC50 [3] of 18 nM. The IC50 [4] was 274 nM and the “FGFR1 Enz kobs” value [5] was 0.0025 min⁻¹.
`COc1cc(-c2cnn(C3CCN(C(=O)C4(OC)CN(C(=O)/C=C/CN(C)C)C4)CC3)c2C)cn2ncc(C#N)c12` [Example 158, (E)-6-(1-(1-(1-(4-(dimethylamino)but-2-enoyl)-3-methoxyazetidine-3-carbonyl)piperidin-4-yl)-5-methyl-1H-pyrazol-4-yl)-4-methoxypyrazolo [1,5-a]pyridine-3-carbonitrile] was tested, and the IC50 [1] was 30 nM, the IC50 [2] was 8 nM and the IC50 [3] was 8 nM. For the same compound, the IC50 [4] was 168 nM and the “FGFR1 Enz kobs” value [5] was 0.00588 min⁻¹.
`COc1cc(-c2cnn(C3CCN(CC4(OC)CN(C(=O)/C=C/CN(C)C)C4)CC3)c2C)cn2ncc(C#N)c12` [Example 159, (E)-6-(1-(1-((1-(4-(dimethylamino)but-2-enoyl)-3-methoxyazetidin-3-yl)methyl)piperidin-4-yl)-5-methyl-1H-pyrazol-4-yl)-4-methoxypyrazolo [1,5-a]pyridine-3-carbonitrile] gave an IC50 [1] of 7 nM, an IC50 [2] of 24 nM and an IC50 [3] of 10 nM. For the same compound, the IC50 [4] was 144 nM and the “FGFR1 Enz kobs” value [5] was 0.00408 min⁻¹.
`COc1cc(-c2cnn(C3CN(C(=O)C4(F)CN(C(=O)/C=C/CN(C)C)C4)C3)c2C)cn2ncc(C#N)c12` [Example 160, (E)-6-(1-(1-(1-(4-(dimethylamino)but-2-enoyl)-3-fluoroazetidine-3-carbonyl)azetidin-3-yl)-5-methyl-1H-pyrazol-4-yl)-4-methoxypyrazolo [1,5-a]pyridine-3-carbonitrile] was tested, and the IC50 [1] was 179 nM, the IC50 [2] was 33 nM and the IC50 [3] was 34 nM. For the same compound, the IC50 [4] was 571 nM and the “FGFR1 Enz kobs” value [5] was 0.00659 min⁻¹.
